Assay results reported in paper PMC9945734 (BMC Medicine, 2023).

Test system: PC-3-KQ and PC-3-KR cells
Experiment: RNA-sequencing and differential gene expression
Format: cell-based, human
Details: RNA-Seq, PC-3-KQ cells

CC(=O)Oc1ccccc1C(=O)Nc1ncc([N+](=O)[O-])s1 [Nitazoxanide]
IL21R Change (KQ-Control vs KQ-NTZ): DOWN
IL21R logFC (KQ-Control vs KQ-NTZ): -0.8899
INHBA Change (KQ-Control vs KQ-NTZ): DOWN
INHBA logFC (KQ-Control vs KQ-NTZ): -0.6293
INHBB Change (KQ-Control vs KQ-NTZ): DOWN
INHBB logFC (KQ-Control vs KQ-NTZ): -0.6733
KIAA1755 Change (KQ-Control vs KQ-NTZ): DOWN
KIAA1755 logFC (KQ-Control vs KQ-NTZ): -0.9388
KLK9 Change (KQ-Control vs KQ-NTZ): DOWN
KLK9 logFC (KQ-Control vs KQ-NTZ): -1.8809
LGALS12 Change (KQ-Control vs KQ-NTZ): DOWN
LGALS12 logFC (KQ-Control vs KQ-NTZ): -2.2497
LILRB3 Change (KQ-Control vs KQ-NTZ): DOWN
LILRB3 logFC (KQ-Control vs KQ-NTZ): -0.8729
LOC105373989 Change (KQ-Control vs KQ-NTZ): DOWN
LOC105373989 logFC (KQ-Control vs KQ-NTZ): -0.7405
LOC105377805 Change (KQ-Control vs KQ-NTZ): DOWN
LOC105377805 logFC (KQ-Control vs KQ-NTZ): -0.9959
LOC107987158 Change (KQ-Control vs KQ-NTZ): DOWN
LOC107987158 logFC (KQ-Control vs KQ-NTZ): -1.1348
LONRF2 Change (KQ-Control vs KQ-NTZ): DOWN
LONRF2 logFC (KQ-Control vs KQ-NTZ): -0.9823
LTB Change (KQ-Control vs KQ-NTZ): DOWN
LTB logFC (KQ-Control vs KQ-NTZ): -0.7686
LY6K Change (KQ-Control vs KQ-NTZ): DOWN
LY6K logFC (KQ-Control vs KQ-NTZ): -0.6327
MAP7D3 Change (KQ-Control vs KQ-NTZ): DOWN
MAP7D3 logFC (KQ-Control vs KQ-NTZ): -0.8315
MCM4 Change (KQ-Control vs KQ-NTZ): DOWN
MCM4 logFC (KQ-Control vs KQ-NTZ): -0.8431
MEOX1 Change (KQ-Control vs KQ-NTZ): DOWN
MEOX1 logFC (KQ-Control vs KQ-NTZ): -0.6507
MMP9 Change (KQ-Control vs KQ-NTZ): DOWN
MMP9 logFC (KQ-Control vs KQ-NTZ): -0.7252
MNX1 Change (KQ-Control vs KQ-NTZ): DOWN
MNX1 logFC (KQ-Control vs KQ-NTZ): -0.604
MSMP Change (KQ-Control vs KQ-NTZ): DOWN
MSMP logFC (KQ-Control vs KQ-NTZ): -1.1495
MYBL2 Change (KQ-Control vs KQ-NTZ): DOWN
MYBL2 logFC (KQ-Control vs KQ-NTZ): -0.7249
MYH7B Change (KQ-Control vs KQ-NTZ): DOWN
MYH7B logFC (KQ-Control vs KQ-NTZ): -0.9453
NKD1 Change (KQ-Control vs KQ-NTZ): DOWN
NKD1 logFC (KQ-Control vs KQ-NTZ): -0.7476
NRK Change (KQ-Control vs KQ-NTZ): DOWN
NRK logFC (KQ-Control vs KQ-NTZ): -1.1538
NTF4 Change (KQ-Control vs KQ-NTZ): DOWN
NTF4 logFC (KQ-Control vs KQ-NTZ): -0.9396
PADI3 Change (KQ-Control vs KQ-NTZ): DOWN
PADI3 logFC (KQ-Control vs KQ-NTZ): -0.9445
PCDH18 Change (KQ-Control vs KQ-NTZ): DOWN
PCDH18 logFC (KQ-Control vs KQ-NTZ): -1.1702
PEG10 Change (KQ-Control vs KQ-NTZ): DOWN
PEG10 logFC (KQ-Control vs KQ-NTZ): -0.7533
PFKFB1 Change (KQ-Control vs KQ-NTZ): DOWN
PFKFB1 logFC (KQ-Control vs KQ-NTZ): -0.9123
PGAM4 Change (KQ-Control vs KQ-NTZ): DOWN
PGAM4 logFC (KQ-Control vs KQ-NTZ): -0.6254
PHACTR3 Change (KQ-Control vs KQ-NTZ): DOWN
PHACTR3 logFC (KQ-Control vs KQ-NTZ): -1.8948
PHOSPHO2 Change (KQ-Control vs KQ-NTZ): DOWN
PHOSPHO2 logFC (KQ-Control vs KQ-NTZ): -0.6401
PIANP Change (KQ-Control vs KQ-NTZ): DOWN
PIANP logFC (KQ-Control vs KQ-NTZ): -1.6896
PRKDC Change (KQ-Control vs KQ-NTZ): DOWN
PRKDC logFC (KQ-Control vs KQ-NTZ): -0.6126
PRR16 Change (KQ-Control vs KQ-NTZ): DOWN
PRR16 logFC (KQ-Control vs KQ-NTZ): -0.5996
PRR29 Change (KQ-Control vs KQ-NTZ): DOWN
PRR29 logFC (KQ-Control vs KQ-NTZ): -0.8108
PRRT4 Change (KQ-Control vs KQ-NTZ): DOWN
PRRT4 logFC (KQ-Control vs KQ-NTZ): -0.6032
RBL1 Change (KQ-Control vs KQ-NTZ): DOWN
RBL1 logFC (KQ-Control vs KQ-NTZ): -0.6965
RPP25 Change (KQ-Control vs KQ-NTZ): DOWN
RPP25 logFC (KQ-Control vs KQ-NTZ): -0.6095
SCG2 Change (KQ-Control vs KQ-NTZ): DOWN
SCG2 logFC (KQ-Control vs KQ-NTZ): -0.6461
SERPINA3 Change (KQ-Control vs KQ-NTZ): DOWN
SERPINA3 logFC (KQ-Control vs KQ-NTZ): -0.7667
